Source: PMC12005472 (Chemmedchem, 2025)
Read-outs that look alike come from different tables or passages of the source.

Tests used:
[1] = system: Endothiapepsin (EP)
From the text: The total proton exchange ( ΔnH^+ ) in a binding event can be determined by ITC measurements in different buffers with distinct heats of ionization ( ΔHionization ), according to the Eq. 1: (1) ΔHobserved=ΔHcorrected+ΔnH^+(ΔHionization)
Integrating the raw thermograms yields the experimentally observed enthalpies ( ΔHobserved ), which can be used for a linear regression with the slope corresponding to ΔnH^+ and the y‐axis intercept corresponding to the buffer‐corrected enthalpy of the binding reaction ( ΔHcorrected ).
Figure 3 Left: Calculation of the heat of ionization. The experimentally observed enthalpies ΔHobs are plotted against the heat of ionization ΔHion of the respective buffers (phosphate: 3.60 kJ mol^−1 ADA: 12.23 kJ mol^−1, HEPES: 20.04 kJ mol^−1, TRIS: 47.45 kJ mol^−1).[14] […] Right: Thermodynamic profiles of complex formation in phosphate, ADA, HEPES and TRIS buffers and the buffer‐corrected thermodynamic profile. For the buffer‐corrected profile, the change in Gibbs free energy ΔG is calculated as the average of ΔG observed in the four buffers, ΔH is obtained as described above, and the entropic contribution − TΔS is calculated from the numerical difference between ΔG and ΔH .
Cacodylate was excluded as a buffering agent due to its toxicity. […] 2.5 % (v/v) DMSO corresponds to a molar concentration of 0.35 M.
Each parameter alone can have a clear effect on the thermodynamic properties.[11] We used the MicroCal PEAQ‐ITC Automated ITC with a cell volume of 200 μL; 25 °C is a standard temperature, where most of the experiments are carried out, not only ITC. We followed standard protocols for protein, ligand, and buffer concentrations.[16]
The dialysis was performed in a 600 mL beaker. The membrane of the cassette was soaked in the dialysis buffer for 2 min by holding it (with gloves) in the beaker filled with dialysis buffer at pH 7.0 (TRIS, ADA, HEPES and phosphate, respectively). After pre‐soaking, the cassette was carefully dried with a paper towel to prevent buffer from entering the cassette, but without touching the membranes. 3 mL of at least 4 mg mL^−1 protein solution was added to the cassette using a 200 μL micropipette. When the cassette was closed with the stopper, any remaining air was gently evacuated from the dialysis chamber. The protein was then dialyzed against 500 mL of dialysis buffer for 2 hours at RT with slow stirring. The buffer was then replaced with 500 mL of fresh buffer and stirred again for 2 hours at RT. After another change of buffer, the dialysate was stored in the refrigerator overnight (12–20 hours). The next day, the protein solution was removed using a syringe with a long cannula. The protein was stored on ice before being shock frozen in liquid nitrogen to determine the concentration using NanoDrop™ 2000c (Thermo Scientific, USA).
ITC measurements were performed using the MicroCal PEAQ‐ITC Automated ITC (Malvern Panalytical, Worcestershire, UK). […] For the reference titration, the same titrant was titrated into the buffer solution. The obtained thermogram peaks of all titrations were integrated and fitted with MicroCal PEAQ‐ITC Analysis Software 1.41.

[2] = system: Endothiapepsin (EP); settings: ITC; 80 μM EP, 1200 μM pepA, 20 mM buffer (ACES, Cacodylate, HEPES, Phosphate, TRIS), 16 °C, pH 7.0; ref 12 (Gómez and Freire); cited from earlier work
[3] = system: Endothiapepsin (EP); settings: in words; ref not given; cited from earlier work
[4] = system: HIV-1 protease (HIV-1 PR); set-up: method as in PMID 1883831; settings: experiment; cited from earlier work
[5] = target: Asp25 (UniProt position 93, KEALLDTGADD); settings: cited from earlier work

Iva‐Val‐Val‐Sta‐Ala‐Sta [pepA]
proton uptake upon pepA binding to EP, in words [1]: uptake of more than one mole of protons
total proton exchange ΔnH^+ (proton uptake per binding reaction) ([1]; ITC, slope of ΔHobs vs ΔHionization in phosphate, ADA, HEPES, TRIS, pH 7.0, 25 °C, 50 μM EP, 500 μM pepA, 100 mM buffer, 2.5 % DMSO, 0.1 % Tween20, on average): 1.67±0.12 protons per binding reaction
enthalpic contribution (ΔHobserved) in TRIS ([1]; TRIS buffer 100 mM, pH 7.0, 25 °C, 2.5 % DMSO, 0.1 % Tween20): 7.34 ± 0.693 kcal/mol
overall proton uptake ([1]; pH 7): 1.67±0.12 moles of protons
total proton exchange ΔnH^+ (proton uptake) ([1]; pH 7): 1.67 ± 0.12 mol
buffer-corrected enthalpy of the binding reaction ΔHcorrected ([1]; y-axis intercept of ΔHobs vs ΔHion in phosphate, ADA, HEPES, TRIS, pH 7.0, 25 °C): -12.7 kcal/mol
proton exchange ΔnH^+ previously published [2]: 1.1±0.1 protons
pH dependence of affinity [3]: becomes higher at more acidic pH

HIV‐1 PR: HIV-1 protease, an aspartic protease, used to calibrate the Poisson-Boltzmann methodology
pKa of Asp25 [4]: 3.1
pKa of Asp25’ [4]: 5.2

HIV-1 protease (Human immunodeficiency virus 1)
pKa [5]: 3.1
pKa ([5]; record 2): 5.2
